# Experimental data published in patent publication US7662971B2, “Inhibitors of fatty acid amide hydrolase” (The Scripps Research Institute, priority 2002, dated 2010).
# Experiments:
# [1] = molecular target: T1, FAAH (Rattus norvegicus, UniProt P97612); test: FAAH enzyme inhibition, breakdown of 14C-oleamide to oleic acid; format: biochemical; conditions: 5-(2-pyridyl)-substituted oxazole head group, FIG. 4
# T1 construct: using a solubilized liver plasma membrane extract containing FAAH; from tissue; host or cells: liver plasma membrane extract (solubilized)
# T1 sequence (P97612 1-579): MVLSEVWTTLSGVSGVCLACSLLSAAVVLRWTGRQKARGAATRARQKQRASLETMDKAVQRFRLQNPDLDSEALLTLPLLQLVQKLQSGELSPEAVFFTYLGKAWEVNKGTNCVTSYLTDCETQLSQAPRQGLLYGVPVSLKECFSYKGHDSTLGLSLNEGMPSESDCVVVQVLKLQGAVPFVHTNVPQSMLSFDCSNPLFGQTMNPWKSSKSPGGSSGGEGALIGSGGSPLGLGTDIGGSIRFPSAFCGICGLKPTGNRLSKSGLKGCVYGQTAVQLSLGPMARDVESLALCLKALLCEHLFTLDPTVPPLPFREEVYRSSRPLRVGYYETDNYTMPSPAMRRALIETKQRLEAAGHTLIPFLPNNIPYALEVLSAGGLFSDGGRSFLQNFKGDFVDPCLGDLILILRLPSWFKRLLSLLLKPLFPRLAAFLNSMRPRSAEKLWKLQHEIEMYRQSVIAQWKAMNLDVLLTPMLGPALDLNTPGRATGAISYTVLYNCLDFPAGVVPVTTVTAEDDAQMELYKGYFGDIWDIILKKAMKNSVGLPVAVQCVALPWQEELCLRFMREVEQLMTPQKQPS
# Method: All enzyme assays were performed at 20-23° C. using a solubilized liver plasma membrane extract containing FAAH in a reaction buffer of 125 mM Tris, 1 mM EDTA, 0.2% glycerol, 0.02% Triton X-100, 0.4 mM HEPES, pH 9.0 buffer (M. P. Patricelli, et al., (1998) Bioorg. Med. Chem. Lett. 8, 613-618; and J. E. Patterson, et al., (1996) J. Am. Chem. Soc. 118, 5938-5945). The initial rates of hydrolysis were monitored by following the breakdown of ^14C-oleamide to oleic acid as previously described (B. F. Cravatt, et al., (1995) Science 268, 1506-1509; and M. P. Patricelli, et al., (1998) Bioorg. Med. Chem. Lett. 8, 613-618). The inhibition was reversible, non time-dependent and linear least squares fits were used for all reaction progress curves and R^2 values were consistently >0.97. IC50 values were determined from the inhibition observed at 3-5 different inhibitor concentrations (from three or more trials at each inhibitor concentration) using the formula IC50=[I]/[(K0/Ki)−1], where K0 is the control reaction rate without inhibitor and Ki is the rate with inhibitor at concentration [I] (K. Conde-Frieboes, et al., (1996) J. Am. Chem. Soc. 118, 5519-5525). Ki values were determined by the Dixon method (x-intercepts of weighted linear fits of [I] versus 1/rate plots at constant substrate concentration, which were converted to Ki values using the formula Ki=−xint/[1+[S]/Km]).
# [2] = test system: mice; test: tail withdrawal / tail immersion test (thermal pain); format: in vivo
# Method: (§1) FIG. 11 illustrates a bar graph showing the reduced thermal pain responses 60 minutes following the injection of OL-135 (10 mg/kg, i.p.). This test is the tail withdrawal test and there is no effect with the vehicle while there is marked delay after administration of the OL-135. [p<0.001; N=12 mice per group; results shown as means ±S.E.]
# (§2) The mice received an i.p. injection of vehicle or SR 141716A (3 mg/kg); 10 minutes later all subjects were given OL-135 (10 mg/kg, i.p.) and then evaluated in the tail immersion test one hour after the second injection. (p<0.001 for OL-135-treated mice that were pretreated with vehicle versus either their pre-injection baseline latencies or OL-135 treated mice that were pretreated with SR 141716A.) Results are shown as means ±S. E. N=6 mice/group.
# [3] = test system: mice; test: hot plate test (thermal pain); format: in vivo
# Method: as §1, with “12” for “11”, “hot plate” for “tail withdrawal”, “and” for “while”, “some” for “marked”, “[p<0.01;” for “[p<0.001;”
# as §2, with “hot plate” for “tail immersion”, “[p<0.001” for “(p<0.001”, “141716A.” for “141716A.)”, “mice/group.]” for “mice/group.”
# [4] = SR 141716A 3 mg/kg i.p. 10 minutes before OL-135 10 mg/kg i.p., one hour after second injection
SMILES,melting point [°C],other results
"CCCCCCCCCCCCCCCCCC(=O)c1ncc(-c2ccccn2)o1 [Compound 182, 1-(5-(Pyridin-2-yl)oxazol-2-yl)octadecan-1-one]",86 to 87,–
"CCCCCCCCCCCCCCCC(=O)c1ncc(-c2ccccn2)o1 [Compound 183, 1-(5-(Pyridin-2-yl)oxazol-2-yl)hexadecan-1-one]",78 to 80,–
"CCCCC(=O)c1ncc(-c2ccccn2)o1 [Compound 192, 1-(5-(pyridin-2-yl)oxazol-2-yl)pentan-1-one]",36 to 37,–
"CCCCCCCCCCCC(=O)c1ncc(-c2ccccn2)o1 [Compound 185, 1-(5-(Pyridin-2-yl)oxazol-2-yl)dodecan-1-one]",73 to 74,difference in Ki between compounds 185 and 200 [1]: factor of two
"C#CCCCCCCCC(=O)c1ncc(-c2ccccn2)o1 [Compound 204, 1-Oxo-1-[5-(2-pyridyl)oxazol-2-yl]-9-decyne]",64.5 to 65.5,–
"CCCCCCCCCC(=O)c1ncc(-c2ccccn2)o1 [Compound 187, 1-(5-(Pyridin-2-yl)oxazol-2-yl)decan-1-one]",56 to 57,–
"C=CCCCCCCCC(=O)c1ncc(-c2ccccn2)o1 [Compound 203, 1-Oxo-1-[5-(2-pyridyl)oxazol-2-yl]-9-decene]",55 to 57,–
"CCCCCCCC(=O)c1ncc(-c2ccccn2)o1 [Compound 189, 1-(5-(Pyridin-2-yl)oxazol-2-yl)octan-1-one]",56,–
"CCCCCCCCCCCCCC(=O)c1ncc(-c2ccccn2)o1 [Compound 184, 1-(5-(Pyridin-2-yl)oxazol-2-yl)tetradecan-1-one]",79 to 80,–
"CCCCCCCCC(=O)c1ncc(-c2ccccn2)o1 [Compound 188, 1-(5-(Pyridin-2-yl)oxazol-2-yl)nonan-1-one]",56 to 57,–
"O=C(CCCCCc1ccccc1)c1ncc(-c2ccccn2)o1 [Compound 199, 1-Oxo-1-[5-(2-pyridyl)oxazol-2-yl]-6-phenylhexane]",43.5 to 45.5,–
"CCCCCCC(=O)c1ncc(-c2ccccn2)o1 [Compound 190, 1-(5-(Pyridin-2-yl)oxazol-2-yl)heptan-1-one]",52,–
"CCCCCCCCC#CCCCCCCCC(=O)c1ncc(-c2ccccn2)o1 [Compound 205, 1-Oxo-1-[5-(2-pyridyl)oxazol-2-yl]-9-octadecyne]",41,–
"O=C(CCCCCCCc1ccccc1)c1ncc(-c2ccccn2)o1 [Compound 201, 1-Oxo-1-[5-(2-pyridyl)oxazol-2-yl]-8-phenyloctane]",72 to 73,–
"CCCC(=O)c1ncc(-c2ccccn2)o1 [Compound 193, 1-[5-(Pyridin-2-yl)oxazol-2-yl]butan-1-one]",54 to 55,–
O=C(CCCCCCc1ccccc1)c1ncc(-c2ccccn2)o1 [OL-135],–,"thermal pain response, tail withdrawal test ([2]; 10 mg/kg, i.p., 60 minutes following injection, p<0.001): marked delay; thermal pain response, hot plate test ([3]; 10 mg/kg, i.p., 60 minutes following injection, p<0.01): some delay"
"O=C(CCCCCCc1ccccc1)c1ncc(-c2ccccn2)o1 [Compound 200, 1-Oxo-1-[5-(2-pyridyl)oxazol-2-yl]-7-phenylheptane]",–,difference in Ki between compounds 185 and 200 [1]: factor of two
"CCC(=O)c1ncc(-c2ccccn2)o1 [Compound 194, 1-[5-(Pyridin-2-yl)oxazol-2-yl]propan-1-one]",65 to 67,–
"Cc1c(C(=O)NN2CCCCC2)nn(-c2ccc(Cl)cc2Cl)c1-c1ccc(Cl)cc1 [SR 141716A, reference compound]",–,"effect on OL-135 analgesia, tail immersion test [2, 4]: blocking the analgesic effects of OL-135; effect on OL-135 analgesia, hot plate test [3, 4]: blocking the analgesic effects of OL-135"
"CCCCCC(=O)c1ncc(-c2ccccn2)o1 [Compound 191, 1-(5-(Pyridin-2-yl)oxazol-2-yl)hexan-1-one]",49 to 50.5,–
"O=C(CCCCc1ccccc1)c1ncc(-c2ccccn2)o1 [Compound 198, 1-Oxo-1-[5-(2-pyridyl)oxazol-2-yl]-5-phenylpentane]",49 to 51,–
